#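 Abbreviation: GI50, concentration required for 50% inhibition of growth. At the TGI there is no net growth.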
# Key:
# Assay in all cases: inhibition of tumour cell growth, NCI panel, 384-well format
# [1] = tested on: SN12C renal
# [2] = tested on: BT-549 breast
# [3] = tested on: ACHN renal
# [4] = tested on: SW-620 colon
# [5] = tested on: NCI-H23 lung
# [6] = tested on: NCI/ADR-RES ovarian
# [7] = tested on: HT29 colon
# [8] = tested on: HS 578T breast
# [9] = tested on: HCC-2998 colon
# [10] = tested on: CCRF-CEM leukemia
# [11] = tested on: RPMI-8226 leukemia
# [12] = tested on: SK-MEL-28 melanoma
# [13] = tested on: NCI-H322M lung
# [14] = tested on: M14 melanoma
# [15] = tested on: HOP-62 NSCLC
# [16] = tested on: HL-60(TB) leukemia
# [17] = tested on: SF-295 CNS
# [18] = tested on: COLO 205 colon
# [19] = tested on: A498 renal
# [20] = tested on: 786-0 renal
# [21] = tested on: EKVX NSCLC
# [22] = tested on: A549 NSCLC
# [23] = tested on: HCT-116 colon
# [24] = tested on: LOX IMVI melanoma
# [25] = tested on: OVCAR-8 ovarian
# [26] = tested on: DU-145 prostate
# [27] = tested on: UO-31 renal
# [28] = tested on: K-562 leukemia
# [29] = tested on: MALME-3M melanoma
# [30] = tested on: NCI-H460 NSCLC
# [31] = tested on: SNB-75 CNS
# [32] = tested on: SK-OV-3 ovarian
# [33] = tested on: KM12 colon
# [34] = tested on: NCI-H522 lung
# [35] = tested on: UACC-62 melanoma
# [36] = tested on: SNB-19 CNS
# [37] = tested on: HOP-92 NSCLC
# [38] = tested on: OVCAR-4 ovarian
# [39] = tested on: MDA-MB-468 breast
# [40] = tested on: U251 glioblastoma
# [41] = tested on: NCI-H226 lung
# [42] = tested on: TK-10 renal
# [43] = tested on: RXF 393 renal
# [44] = tested on: MCF7 breast
# [45] = tested on: PC-3 prostate
# [46] = tested on: T-47D breast
# [47] = tested on: CAKI-1 renal
# [48] = tested on: SF-268 CNS
# [49] = tested on: MOLT-4 leukemia
# [50] = tested on: SK-MEL-5 melanoma
# [51] = tested on: MDA-MB-435 melanoma
# [52] = tested on: UACC-257 melanoma
# [53] = tested on: MDA-MB-231 breast
# [54] = tested on: HCT-15 colon
# [55] = tested on: IGROV1 ovarian
# [56] = tested on: OVCAR-3 ovarian
# [57] = tested on: SF-539 CNS
smiles,measurement,setting,value
COc1cc2nc(N3CCCN(C)CC3)nc(NC3CCN(Cc4ccccc4)CC3)c2cc1OC,GI50,[1],1.72 µM
same,TGI,[1],3.22 µM
same,GI50,[2],1.09 µM
same,TGI,[2],2.3 µM
same,GI50,[3],1.65 µM
same,TGI,[3],3.04 µM
same,GI50,[4],0.405 µM
same,TGI,[4],1.45 µM
same,GI50,[5],1.56 µM
same,TGI,[5],3.16 µM
same,GI50,[6],4.78 µM
same,TGI,[6],15.9 µM
same,GI50,[7],0.395 µM
same,TGI,[7],1.32 µM
same,GI50,[8],1.48 µM
same,TGI,[8],2.81 µM
same,GI50,[9],0.867 µM
same,TGI,[9],2.13 µM
same,GI50,[10],0.227 µM
same,TGI,[10],0.622 µM
same,GI50,[11],0.449 µM
same,TGI,[11],1.54 µM
same,GI50,[12],1.64 µM
same,TGI,[12],3.02 µM
same,GI50,[13],1.44 µM
same,TGI,[13],2.84 µM
same,GI50,[14],0.6 µM
same,TGI,[14],1.85 µM
same,GI50,[15],1.76 µM
same,TGI,[15],3.17 µM
same,GI50,[16],0.233 µM
same,TGI,[16],0.541 µM
same,GI50,[17],1.55 µM
same,TGI,[17],2.89 µM
same,GI50,[18],1.34 µM
same,TGI,[18],2.64 µM
same,GI50,[19],0.625 µM
same,TGI,[19],1.83 µM
same,GI50,[20],1.3 µM
same,TGI,[20],2.59 µM
same,GI50,[21],1.65 µM
same,TGI,[21],3.62 µM
same,GI50,[22],1.66 µM
same,TGI,[22],3.08 µM
same,GI50,[23],0.351 µM
same,TGI,[23],1.02 µM
same,GI50,[24],1.54 µM
same,TGI,[24],2.89 µM
same,GI50,[25],1.03 µM
same,TGI,[25],2.24 µM
same,GI50,[26],1.38 µM
same,TGI,[26],2.73 µM
same,GI50,[27],1.78 µM
same,TGI,[27],3.18 µM
same,GI50,[28],0.163 µM
same,TGI,[28],0.366 µM
same,GI50,[29],1.15 µM
same,TGI,[29],2.37 µM
same,GI50,[30],0.456 µM
same,TGI,[30],1.5 µM
same,GI50,[31],1.66 µM
same,TGI,[31],3.04 µM
same,GI50,[32],1.35 µM
same,TGI,[32],2.66 µM
same,GI50,[33],0.434 µM
same,TGI,[33],1.67 µM
same,GI50,[34],1.43 µM
same,TGI,[34],2.75 µM
same,GI50,[35],1.28 µM
same,TGI,[35],2.57 µM
same,GI50,[36],1.51 µM
same,TGI,[36],3.34 µM
same,GI50,[37],1.38 µM
same,TGI,[37],2.72 µM
same,GI50,[38],1.01 µM
same,TGI,[38],2.19 µM
same,GI50,[39],1.2 µM
same,TGI,[39],2.45 µM
same,GI50,[40],1.15 µM
same,TGI,[40],2.39 µM
same,GI50,[41],1.59 µM
same,TGI,[41],3.18 µM
same,GI50,[42],1.18 µM
same,TGI,[42],2.5 µM
same,GI50,[43],0.572 µM
same,TGI,[43],1.89 µM
same,GI50,[44],0.694 µM
same,TGI,[44],2.02 µM
same,GI50,[45],1.14 µM
same,TGI,[45],2.55 µM
same,GI50,[46],1.78 µM
same,TGI,[46],3.2 µM
same,GI50,[47],0.578 µM
same,TGI,[47],1.83 µM
same,GI50,[48],0.943 µM
same,TGI,[48],2.14 µM
same,GI50,[49],0.538 µM
same,TGI,[49],1.84 µM
same,GI50,[50],0.968 µM
same,TGI,[50],2.16 µM
same,GI50,[51],1.57 µM
same,TGI,[51],2.93 µM
same,GI50,[52],0.178 µM
same,TGI,[52],0.319 µM
same,GI50,[53],0.725 µM
same,TGI,[53],2.11 µM
same,GI50,[54],0.611 µM
same,TGI,[54],1.9 µM
same,GI50,[55],1.85 µM
same,TGI,[55],3.83 µM
same,GI50,[56],0.54 µM
same,TGI,[56],1.71 µM
same,GI50,[57],0.339 µM
same,TGI,[57],0.916 µM

# Reference: PubChem BioAssay (NCI)
